Patent publication US20210322333A1, “Lignin-PLGA Biopolymers and Nanoparticles, and their Synthesis and Use” (Board of Supervisors of Louisiana State University and …, priority 2018, published 2021)
Marks after values point to notes of the source that are not given here.

Key:
[1] = system: MDA-MB-231 breast cancer cells; experiment: Cell survival assay (crystal violet, 5 days); format: cell-based
Procedure: Breast cancer cell line MDA-MB-231 was generously donated by the Burrow Lab at Tulane University School of Medicine. Cells were maintained in 5% CO2 at 37° C. and cultured in Dulbecco's modified Eagle's medium (DMEM) supplemented with 10% Hyclone Cosmic Calf Serum (HyClone Laboratories, Utah), 50 ng/mL insulin (Sigma-Aldrich, St. Louis, Mo., USA), and 1% MEMAA, NEAA, sodium pyruvate, and antibiotic-antimycotic (Gibco, Dublin, Ireland).
MDA-MB-231 breast cancer cells were seeded at a density of 5000 cells per well in cell culture medium on 96-well Corning Costar tissue culture plastic plates (Corning Life Sciences, Corning, N.Y., USA). After 24 hours in culture, cells were treated with vehicle control (DMSO), PLGA NPs (negative control), AL-PLGA NPs (negative control), free GDC-0623 (positive control), PLGA-GDC NPs, or AL-PLGA-GDC NPs. […] Following treatment, cells were cultured for 5 days and then stained with crystal violet. Crystal violet was eluted with 33% acetic acid, and absorbance at 570 nm was measured with a BioTek Cytation 3 plate reader (BioTek Instruments Inc, Winooski, Vt., USA). The experiment was carried out with both internal replicates (n=3) and biological replicates (n=3).

[2] = cited from earlier work

For O=C(NOCCO)c1ccc2cncn2c1Nc1ccc(I)cc1F [GDC-0623], the “Mean Relative Cell Number (%)” value ([1]; 1 nM, relative to DMSO, n = 3) was 96.1%, the “Mean Relative Cell Number (%)” value ([1]; 10 nM GDC-0623 free or NP-entrapped, relative to DMSO (Table 6)) was 87.8* % and the “Mean Relative Cell Number (%)” value ([1]; 10 nM, relative to DMSO, n = 3) was 83.9%. The “Mean Relative Cell Number (%)” value ([1]; 100 nM GDC-0623, normalized versus free drug (Table 7, first group)) was 100.0%, the “Mean Relative Cell Number (%)” value ([1]; 100 nM GDC-0623 free or NP-entrapped, relative to DMSO (Table 6)) was 51.4** % and the “reduction in cell numbers” value ([1]; 100 nM, compared to DMSO (vehicle)) was 50%. The “Mean Relative Cell Number (%)” value ([1]; 100 nM, relative to DMSO, n = 3) was 46.8* %, the “Mean Relative Cell Number (%)” value ([1]; 1 μM, relative to DMSO, n = 3) was 31.3** % and the “Mean Relative Cell Number (%)” value ([1]; 10 μM, relative to DMSO, n = 3) was 30.9** %. For the same molecule, the “Mean Relative Cell Number (%)” value ([1]; printed 100 nM GDC-0623, normalized versus free drug (Table 7, second group r12-r14)) was 100.0%, the pharmacokinetic characteristics ([2]; Phase I trials) was “dose-proportional and time-dependent” and the tolerability ([2]; Phase I trials) was “well-tolerated”. For the same molecule, the accumulation at steady-state ([2]; daily oral dosing) was “no significant accumulation”.
